Assay results taken from US9381200B2, “Nitrogen containing compounds” (WOCKHARDT LIMITED, priority 2011, dated 2016).
≈ marks a conversion by molar mass, not a printed value. Where two headings read alike, the source gives them in different places.

Key:
Format in all cases: cell-based
E. coli M 50 = experiment: Antibacterial activity (MIC), agar dilution per CLSI; details: Escherichia coli
Procedure: (§1) The biological activity of representative compounds according to the invention against various bacterial strains was investigated. In a typical study, overnight grown bacterial cultures were diluted appropriately and inoculated on the agar media containing doubling dilutions of the test compounds. Observation for growth or no growth was performed after 16-20 hours of incubation at 35±2° C. in ambient air. The overall procedure was performed as per Clinical and Laboratory Standards Institute (CLSI) recommendations (Clinical and Laboratory Standards Institute (CLSI), Performance Standards for Antimicrobial Susceptibility Testing, 20th Informational Supplement, M 100-S20, Volume 30, No. 1, 2010).
(§2) The activities are expressed as MICs (mcg/ml).

E. coli NCTC 13351 = experiment: as above; details: Escherichia coli, NCTC13351, Table 3, E. coli NCTC 13351 expressing ESBL, 16-20 hours, 35±2° C., read-out: MIC
Procedure: as §1
(§3) Table 3 details antibacterial activity of representative compounds according to the invention against various E. coli strains (NCTC 13351, M 50 and 7 MP) expressing ESBL (Extended Spectrum Beta Lactamases).

E. coli 7 MP = experiment: as above; details: Escherichia coli, Table 3, E. coli 7 MP expressing ESBL, read-out: MIC
Procedure: as §1, §3

P. aeruginosa Ps 21 = experiment: Antibacterial activity (MIC) against MDR Gram negative strains; details: Pseudomonas aeruginosa, PS21
Procedure: as §1, §2

E. Coli B 89 = experiment: as above; details: Escherichia coli
Procedure: as §1, §2

E. Coli M 3 = experiment: as above; details: Escherichia coli
Procedure: as §1, §2

E. Coli H 484 = experiment: as above; details: Escherichia coli
Procedure: as §1, §2

E. Coli M 44 = experiment: as above; details: Escherichia coli
Procedure: as §1, §2

E. Coli W 13351 = experiment: as above; details: Escherichia coli
Procedure: as §1, §2

P. aeruginosa ATCC 27853 = experiment: as above; details: Pseudomonas aeruginosa, ATCC27853
Procedure: as §1, §2

K penumoniae H 521 = experiment: as above
Procedure: as §1, §2

K. penumoniae S 48 = experiment: as above
Procedure: as §1, §2

E. Coli W 13352 = experiment: as above; details: Escherichia coli
Procedure: as §1, §2

E. Coli W 13353 = experiment: as above; details: Escherichia coli
Procedure: as §1, §2

P. aeruginosa Ps 32 = experiment: as above; details: Pseudomonas aeruginosa, PS32
Procedure: as §1, §2

K penumoniae H 525 = experiment: as above
Procedure: as §1, §2

K penumoniae H 523 = experiment: as above
Procedure: as §1, §2

[1] = M50, Table 3, E. coli M 50 expressing ESBL, agar dilution, read-out: MIC
[2] = M50, Table 4, E. Coli M 50, Class C ESBL, MDR, read-out: MIC
[3] = Table 5, P. aeruginosa Ps 21, read-out: MIC
[4] = Table 4, E. Coli B 89, Class C ESBL, MDR, read-out: MIC
[5] = Table 5, E. Coli M 3, Class B ESBL, MDR, read-out: MIC
[6] = Table 4, E. Coli H 484, Class C ESBL, MDR, read-out: MIC
[7] = Table 5, E. Coli M 44, Class B ESBL, MDR, read-out: MIC
[8] = Table 4, E. Coli W 13351, Class A ESBL, MDR, read-out: MIC
[9] = Table 5, P. aeruginosa ATCC 27853, read-out: MIC
[10] = Table 4, K penumoniae H 521, KPC ESBL, MDR, read-out: MIC
[11] = Table 5, K. penumoniae S 48, Class B ESBL, MDR, read-out: MIC
[12] = Table 4, E. Coli W 13352, Class A ESBL, MDR, read-out: MIC
[13] = Table 4, E. Coli W 13353, Class A ESBL, MDR, read-out: MIC
[14] = Table 5, P. aeruginosa Ps 32, read-out: MIC
[15] = Table 4, K penumoniae H 525, KPC ESBL, MDR, read-out: MIC
[16] = Table 4, K penumoniae H 523, KPC ESBL, MDR, read-out: MIC

SMILES | MIC (E. coli M 50; [1]) [µg/mL] | MIC (E. coli M 50; [2]) [µg/mL] | MIC (E. coli NCTC 13351) [µg/mL] | MIC (E. coli 7 MP) [µg/mL] | MIC (P. aeruginosa Ps 21; [3]) [µg/mL] | MIC (E. Coli B 89; [4]) [µg/mL] | MIC (E. Coli M 3; [5]) [µg/mL] | MIC (E. Coli H 484; [6]) [µg/mL] | MIC (E. Coli M 44; [7]) [µg/mL] | MIC (E. Coli W 13351; [8]) [µg/mL] | MIC (P. aeruginosa ATCC 27853; [9]) [µg/mL] | MIC (K penumoniae H 521; [10]) [µg/mL] | MIC (K. penumoniae S 48; [11]) [µg/mL] | MIC (E. Coli W 13352; [12]) [µg/mL] | MIC (E. Coli W 13353; [13]) [µg/mL] | MIC (P. aeruginosa Ps 32; [14]) [µg/mL] | MIC (K penumoniae H 525; [15]) [µg/mL] | MIC (K penumoniae H 523; [16]) [µg/mL] | further results
O=C(NNC(=O)[C@H]1CC[C@@H]2CN1C(=O)N2OS(=O)(=O)O)[C@@H]1C[C@H](F)CN1 (mixture of isomers) [Example 11, trans-sulfuric acid mono-[2-(N′-[(2S,4S)-4-fluoro-pyrrolidin-2-carbonyl]-hydrazinocarbonyl)-7-oxo-1,6-diaza-bicyclo[3.2.1]oct-6-yl]ester] | 1 | 2 | 2 | 4 | > 32 | 2 | 8 | 16 | 1 | 2 | > 32 | 4 | 2 | 2 | 2 | > 32 | 2 | 2 | –
O=C(NNC(=O)[C@H]1CC[C@@H]2CN1C(=O)N2OS(=O)(=O)O)[C@@H]1CCCCN1 (mixture of isomers) [Example 17, trans-sulfuric acid mono-[2-(N′—((S)-piperidin-2-carbonyl)-hydrazinocarbonyl)-7-oxo-1,6-diaza-bicyclo[3.2.1]oct-6-yl]ester] | 0.5 | 0.5 | 0.5 | 2 | > 32 | 0.5 | 0.5 | 4 | 0.5 | 0.5 | > 32 | 0.5 | 0.5 | 0.5 | 0.25 | > 32 | 0.5 | 0.5 | –
O=C(NNC(=O)[C@H]1CCCN1)[C@H]1CC[C@@H]2CN1C(=O)N2OS(=O)(=O)O (mixture of isomers) [Example 30, trans-sulfuric acid mono-[2-(N′—[(R)-pyrrolidin-2-carbonyl]-hydrazinocarbonyl)-7-oxo-1,6-diaza-bicyclo[3.2.1]oct-6-yl]ester] | 8 | 8 | 16 | 32 | > 32 | 8 | 8 | 8 | 16 | 16 | > 32 | 8 | > 32 | 16 | 8 | > 32 | > 32 | 8 | –
N[C@@H]1CN[C@H](C(=O)NNC(=O)[C@H]2CC[C@@H]3CN2C(=O)N3OS(=O)(=O)O)C1 (mixture of isomers) [Example 35, trans-sulfuric acid mono-[2-(N′-[(2S,4S)-4-amino-pyrrolidin-2-carbonyl]-hydrazinocarbonyl)-7-oxo-1,6-diaza-bicyclo[3.2.1]oct-6-yl]ester] | 1 | 1 | 1 | 4 | > 32 | 1 | 1 | 1 | 2 | 1 | > 32 | 2 | 2 | 1 | 1 | 32 | 1 | 1 | –
C[C@H]1[C@H](NC(=O)/C(=N\OC(C)(C)C(=O)O)c2csc(N)n2)C(=O)N1S(=O)(=O)O [Aztreonam, reference compound] | – | > 32 | – | – | 8 (≈ 18.4 µM) | > 32 | > 32 | > 32 | > 32 | > 32 | 2 (≈ 4.59 µM) | > 32 | > 32 | > 32 | > 32 | 8 (≈ 18.4 µM) | > 32 | > 32 | –
O=C(O)c1cn(C2CC2)c2cc(N3CCNCC3)c(F)cc2c1=O [Ciprofloxacin, reference compound] | – | – | – | – | – | – | – | – | – | – | 0.5 (≈ 1.51 µM) | 32 (≈ 96.6 µM) | – | – | – | – | 32 (≈ 96.6 µM) | 8 (≈ 24.1 µM) | –
C[C@@H](O)[C@H]1C(=O)N2C(C(=O)O)=C(SCCN=CN)C[C@H]12 [Imipenem, reference compound] | – | 0.5 (≈ 1.67 µM) | – | – | > 32 | 0.5 (≈ 1.67 µM) | 8 (≈ 26.7 µM) | 4 (≈ 13.4 µM) | 32 (≈ 107 µM) | 0.25 (≈ 0.835 µM) | 4 (≈ 13.4 µM) | 16 (≈ 53.4 µM) | 16 (≈ 53.4 µM) | 0.25 (≈ 0.835 µM) | 0.25 (≈ 0.835 µM) | > 32 | 16 (≈ 53.4 µM) | 16 (≈ 53.4 µM) | –
CN(C)c1cc(NC(=O)CNC(C)(C)C)c(O)c2c1C[C@H]1C[C@H]3[C@H](N(C)C)C(O)=C(C(N)=O)C(=O)[C@@]3(O)C(O)=C1C2=O [Tigecyclin, Tigecycline, reference compound] | – | – | – | – | – | – | – | – | – | – | – | – | – | – | – | – | – | – | MIC (E. coli M 50; M50): 0.5 µg/mL (≈ 0.854 µM); MIC (P. aeruginosa Ps 21): 16 µg/mL (≈ 27.3 µM); MIC (E. Coli B 89): 0.5 µg/mL (≈ 0.854 µM); MIC (E. Coli M 3): 4 µg/mL (≈ 6.83 µM); MIC (E. Coli H 484): 0.25 µg/mL (≈ 0.427 µM); MIC (E. Coli M 44): 0.25 µg/mL (≈ 0.427 µM); MIC (E. Coli W 13351): 1 µg/mL (≈ 1.71 µM); MIC (P. aeruginosa ATCC 27853): 16 µg/mL (≈ 27.3 µM); MIC (K penumoniae H 521): 2 µg/mL (≈ 3.41 µM); MIC (K. penumoniae S 48): 1 µg/mL (≈ 1.71 µM); MIC (E. Coli W 13352): 0.25 µg/mL (≈ 0.427 µM); MIC (E. Coli W 13353): 1 µg/mL (≈ 1.71 µM); MIC (P. aeruginosa Ps 32): 16 µg/mL (≈ 27.3 µM); MIC (K penumoniae H 525): 2 µg/mL (≈ 3.41 µM); MIC (K penumoniae H 523): 8 µg/mL (≈ 13.7 µM)
